Series [1] deals with T1, Beta-3 adrenergic receptor (Homo sapiens, UniProt P13945). Description: In vitro functional efficacy as increased cAMP in chinese hamster ovary (CHO) cells expressing human beta-3 receptor. It counts as cell-based.
Target sequence in this assay (P13945 whole entry): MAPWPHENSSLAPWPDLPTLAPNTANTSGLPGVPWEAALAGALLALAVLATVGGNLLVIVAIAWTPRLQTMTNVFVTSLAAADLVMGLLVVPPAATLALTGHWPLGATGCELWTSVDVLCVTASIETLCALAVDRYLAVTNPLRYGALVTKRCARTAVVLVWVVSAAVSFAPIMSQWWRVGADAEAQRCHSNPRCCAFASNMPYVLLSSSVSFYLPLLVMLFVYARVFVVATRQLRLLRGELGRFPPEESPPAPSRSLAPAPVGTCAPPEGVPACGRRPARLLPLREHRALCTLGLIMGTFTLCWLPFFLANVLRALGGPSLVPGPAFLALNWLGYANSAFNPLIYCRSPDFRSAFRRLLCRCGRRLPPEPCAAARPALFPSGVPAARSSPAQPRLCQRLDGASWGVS
Series [2] has as its target T2, Beta-1 adrenergic receptor (Homo sapiens, UniProt P08588). Description: Agonistic efficacy at human beta 1 adrenergic receptor was assessed from adenylyl cyclase activation given as % of the maximum stimulation with isoproterenol at 10 uM. Format: functional.
Target sequence in this assay (P08588 whole entry, looked up): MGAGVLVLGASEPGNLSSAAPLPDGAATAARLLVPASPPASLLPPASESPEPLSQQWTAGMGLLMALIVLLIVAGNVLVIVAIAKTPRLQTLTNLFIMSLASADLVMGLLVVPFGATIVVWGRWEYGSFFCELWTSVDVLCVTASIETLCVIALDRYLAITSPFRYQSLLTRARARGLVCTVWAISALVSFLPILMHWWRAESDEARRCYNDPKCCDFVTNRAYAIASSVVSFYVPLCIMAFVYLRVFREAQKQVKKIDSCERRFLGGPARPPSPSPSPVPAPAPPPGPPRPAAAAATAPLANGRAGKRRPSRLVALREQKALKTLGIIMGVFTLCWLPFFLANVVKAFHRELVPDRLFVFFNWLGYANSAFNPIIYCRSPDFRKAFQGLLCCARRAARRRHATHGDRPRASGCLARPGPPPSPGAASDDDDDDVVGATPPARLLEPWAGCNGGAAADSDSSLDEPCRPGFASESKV
Series [3] addresses T1, Beta-3 adrenergic receptor. Kind of series: Agonistic efficacy at human beta 3 adrenergic receptor as percent adenylyl cyclase activation relative to isoproterenol. Format: functional.
Target sequence in this assay (P13945 whole entry, looked up): as the sequence (P13945 whole entry) above
The target in series [4] is T2, Beta-1 adrenergic receptor. Description: biochemical.
Target sequence in this assay (P08588 whole entry): as the sequence (P08588 whole entry, looked up) above
Description: Binding affinity was evaluated on chinese hamster ovary (CHO) cells expressing the cloned human beta-1 adrenergic receptor in the presence of [125I]- iodocyanopindolol.
The target in series [5] is T3, Beta-2 adrenergic receptor (Homo sapiens, UniProt P07550). Kind of series: biochemical.
Target sequence in this assay (P07550 whole entry): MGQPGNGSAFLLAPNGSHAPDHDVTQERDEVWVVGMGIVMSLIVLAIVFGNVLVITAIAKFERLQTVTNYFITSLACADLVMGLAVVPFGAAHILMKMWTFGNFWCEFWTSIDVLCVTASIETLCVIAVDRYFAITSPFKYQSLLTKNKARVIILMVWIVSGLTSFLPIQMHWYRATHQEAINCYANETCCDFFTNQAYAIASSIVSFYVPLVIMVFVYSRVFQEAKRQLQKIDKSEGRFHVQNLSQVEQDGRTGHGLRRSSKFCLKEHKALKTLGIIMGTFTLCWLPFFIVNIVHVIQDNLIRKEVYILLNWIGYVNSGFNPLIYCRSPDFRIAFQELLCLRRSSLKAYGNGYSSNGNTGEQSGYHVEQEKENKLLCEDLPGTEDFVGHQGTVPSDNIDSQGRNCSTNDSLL
Description: Binding affinity was evaluated on chinese hamster ovary (CHO) cells expressing the cloned human beta-2 adrenergic receptor in the presence of [125I]- iodocyanopindolol.
Series [6] can be described thus: Plasma clearance was measured in dog. Particulars: read-out: Clp. Format: ADME, organism-based, Canis lupus familiaris.
Series [7] deals with T2, Beta-1 adrenergic receptor. Description: In vitro functional efficacy in stimulating increase in cAMP in chinese hamster ovary (CHO) cells expressing the cloned human beta-1 receptor. It counts as cell-based.
Target sequence in this assay (P08588 whole entry): as the sequence (P08588 whole entry, looked up) above
The nature of series [8]: Area under curve determined in dogs after oral administration of 10 mg/kg. Set-up: dose 10 mg/kg, route oral. As to conditions: dog, in vivo. Format: ADME, organism-based, Canis lupus familiaris.
In series [9] the target is T1, Beta-3 adrenergic receptor. Format: cell-based, CHO.
Target sequence in this assay (P13945 whole entry): as the sequence (P13945 whole entry) above
Series [10] can be described thus: Area under curve determined in dogs after intravenous administration of 3 mg/kg. It counts as ADME, organism-based, Canis lupus familiaris. Set-up: dose 3 mg/kg, route intravenous. As to conditions: dog, in vivo.
Series [11] can be described thus: Oral bioavailability in dog. It counts as ADME, organism-based, Canis lupus familiaris. As to conditions: in vivo.
The target of series [12] is T3, Beta-2 adrenergic receptor. Kind of series: Agonistic efficacy at human beta 2 adrenergic receptor was assessed from adenylyl cyclase activation given as % of the maximum stimulation with isoproterenol. It counts as functional.
Target sequence in this assay (P07550 whole entry, looked up): as the sequence (P07550 whole entry) above
Series [13] has as its target T3, Beta-2 adrenergic receptor. Description: In vitro functional efficacy in stimulating increase in cAMP in chinese hamster ovary (CHO) cells expressing the cloned human beta-2 receptor. Format: cell-based.
Target sequence in this assay (P07550 whole entry): as above
The nature of series [14]: Half life was measured in dog. Format: ADME, organism-based, Canis lupus familiaris. Particulars: in vivo.
A short description of series [15]: Volume of distribution (Vdss) was measured in dog. Format: ADME, organism-based, Canis lupus familiaris. Particulars: in vivo, read-out: Vdss.
A further series relates to Monkey. Kind of series: Effective dose for hyperglycerolemia producing increase in serum glycerol accompained by tachycardia in anesthetized rhesus monkeys. Format: functional. As to conditions: Cercopithecidae, in Macaca mulatta.
Series [16] can be described thus: Volume distribution (Vdss) was measured in dog. Format: ADME, organism-based, Canis lupus familiaris. Particulars: in vivo, read-out: Vdss.
Series [17] is described as follows: Oral bioavailability in rat (dose 10 mg/kg p.o. and 3 mg/kg i.v.). It counts as ADME, organism-based. Particulars: in vivo.

In turn, `O=S(=O)(Nc1ccc(CCNC[C@H](O)c2cccnc2)cc1)c1ccc(-c2nc(-c3ccc(F)cc3F)cs2)cc1` returned an EC50 in [1] of 0.019 µM. The figures for the ACT in series [2] and in [3] were 7% and 87%, respectively. For the same molecule, the IC50 was determined as 2.5 µM in [4] and 2.6 µM in [5].
On to `O=S(=O)(Nc1ccc(CCNC[C@H](O)c2cccnc2)cc1)c1ccc(-c2nc(-c3ccc(F)c(F)c3)cs2)cc1`, for which the clearance in series [6] came out at 1.76 L/h/kg. Besides, the values for the EC50 in series [7], in [1] and in series [13] were 2.6 µM, 0.0071 µM and 1.8 µM, respectively. Also, the values for the AUC in series [8] and in series [10] were 2.07 µg·h/mL and 1.72 µg·h/mL, respectively. For the same molecule, the figures for the half-maximal inhibitory concentration (IC50) in series [9], in series [4] and in [5] were 0.02 µM, 1.7 µM and 1.7 µM, respectively. In addition, the bioavailability in [11] worked out at 36%. For the same molecule, the ACT turned out to be 12% in series [12] and 92% in [3]. This molecule showed a half-life in series [14] of 7.5 h. Moreover, in series [15], the Vd amounted to 19 L/kg.
In turn, `O=S(=O)(Nc1ccc(CCNC[C@H](O)c2cccnc2)cc1)c1ccc(-c2nc(-c3cccc(F)c3F)cs2)cc1` yielded a concentration for a half-maximal effect (EC50) in series [1] of 0.0076 µM. Moreover, the ACT in series [2] worked out at 6%; in series [3], 99%. Besides, the half-maximal inhibitory concentration (IC50) in series [4] is 2.6 µM; in series [5], 0.76 µM.
For `O=S(=O)(Nc1ccc(CCNC[C@H](O)c2cccnc2)cc1)c1ccc(-c2nc(-c3cccc(C(F)(F)F)c3)cs2)cc1` the same measures were 0.0069 µM, 17%, 100%, 1.8 µM and 0.98 µM.
As to `O=S(=O)(Nc1ccc(CCNC[C@H](O)c2cccnc2)cc1)c1ccc(-c2nc(-c3ccc(OC(F)(F)F)cc3)cs2)cc1`, the clearance in series [6] was 0.858 L/h/kg. Besides, the 50% effective concentration (EC50) in series [7] came to 2.7 µM; in [1], 0.0043 µM; in series [13], 1.4 µM. The same molecule gave an ED50 with Monkey of 0.14 mg/kg. Further, the AUC in [8] was 6.28 µg·h/mL; in [10], 3.53 µg·h/mL. In addition, the IC50 in [9] was 0.03 µM; in series [4], 8.4 µM; in series [5] it was 1.2 µM. Further, the Vd in [16] came to 12.8 L/kg. Besides, the bioavailability was 53% in series [11] and 7% in series [17]. Also, the ACT in series [12] was found to be 18%; in [2], 24%; in [3], 93%. This molecule also had a half-life in series [14] of 10.3 h.
`O=S(=O)(Nc1ccc(CCNC[C@H](O)c2cccnc2)cc1)c1ccc(-c2nc(-c3ccc(C(F)(F)F)cc3)cs2)cc1`: the clearance in series [6] came to 1.61 L/h/kg. The values for the EC50 in series [7] and in series [13] were 4.8 µM and 2.4 µM, respectively. The molecule further came in with a 50% effective dose (ED50) in the series on Monkey of 0.26 mg/kg. In addition, the exposure (AUC) in series [8] is 2.27 µg·h/mL; in series [10], 1.93 µg·h/mL. The molecule also returned an IC50 in series [9] of 0.046 µM. In addition, the Vd in series [16] is 31.3 L/kg. For the same molecule, the bioavailability was 38% in [11] and 17% in series [17]. In addition, the ACT in series [2] amounted to 24%; in series [3] it was 94%. Further, the half-life in series [14] was 13.5 h.
Turning to `O=S(=O)(Nc1ccc(CCNC[C@H](O)c2cccnc2)cc1)c1ccc(-c2nc(-c3cc(F)c(F)c(F)c3)cs2)cc1`, in series [6], the clearance amounted to 1.23 L/h/kg. Also, the AUC was 2.23 µg·h/mL in [8] and 2.47 µg·h/mL in series [10]. The EC50 in [1] stood at 0.0063 µM. The Vd in series [16] amounted to 14.1 L/kg. In series [11], this molecule registered a bioavailability of 27%. The ACT is 20% in [2] and 100% in series [3]. The half-maximal inhibitory concentration (IC50) in series [4] was found to be 2 µM; in series [5], 5 µM. This molecule also had a half-life in [14] of 8 h.
As for `O=S(=O)(Nc1ccc(CCNC[C@H](O)c2cccnc2)cc1)c1ccc(-c2nc(-c3ccccc3C(F)(F)F)cs2)cc1`, the EC50 in series [1] is 0.053 µM. The molecule further returned an ACT in series [3] of 82%. The IC50 in series [4] was 1.9 µM; in [5] it was 1.8 µM.

Source of the values: ChEMBL document CHEMBL1133690, “Discovery of a potent, orally bioavailable beta(3) adrenergic receptor agonist, (R)-N-[4-[2-[[2-hydroxy-2-(3-pyridinyl)ethyl]amino]ethyl]phenyl]-4-[4 -[4-(trifluoromethyl)phenyl]thiazol-2-yl]benzenesulfonamide” (J Med Chem, 2000).
